SMILES strings stand for the structures. Several values for one entry are separate records, joined by “and”; a condition that tells them apart may be missing. Equal entries are not always repeated.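 Protocol summary: plate cells (96-well), add compound at 5 concentrations, incubate 48 h, interpolate endpoints linearly. GI50 is the concentration that inhibits growth by half. At the TGI there is no net growth.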

Test systems include SNB-78 CNS; HOP-18 NSCLC; KM20L2 colon; M19-MEL melanoma; LXFL 529 NSCLC; HS 578T breast; DMS 273 small cell lung; MDA-MB-435.
Assay in all cases: NCI-60 cell line screen, 48 h

Consider `O=Cc1ccc(-c2cccs2)s1`, for which the TGI is > 100000 nM in the assay on SNB-78 CNS; > 100000 nM in the assay with HOP-18 NSCLC; > 100000 nM in the assay on KM20L2 colon; > 100000 nM with M19-MEL melanoma; 4510 nM in the assay with LXFL 529 NSCLC; 98000 nM in the assay with HS 578T breast. Also, the TGI in the assay with DMS 273 small cell lung and in the assay on MDA-MB-435 was > 100000 nM throughout.

Regarding `CC[C@@]1(O)C(=O)OCc2c1cc1n(c2=O)Cc2cc3cc(N)ccc3nc2-1`, the GI50 with SNB-78 CNS is 46.3 nM and 212 nM; in the assay with KM20L2 colon, 31.4 nM and 37.3 nM; in the assay with LXFL 529 NSCLC it was 204 nM; in the assay with HS 578T breast, 532 nM and 2410 nM; in the assay with DMS 273 small cell lung, 2.63 nM; in the assay with MDA-MB-435, 120 nM and 18.8 nM. Also, the TGI was > 100000 nM in the assay on HOP-18 NSCLC; 854 nM and 547 nM in the assay on KM20L2 colon; 289 nM and 222 nM with M19-MEL melanoma; 3150 nM in the assay with LXFL 529 NSCLC; 129 nM and 179 nM with DMS 273 small cell lung; 663 nM and 133 nM in the assay with MDA-MB-435.

As to `C1=CC=C2NCCOCCNC3=CC=CC=CC3=NCCOCCN=C2C=C1`, the TGI in the assay with SNB-78 CNS was > 100000 nM; in the assay on HOP-18 NSCLC, > 100000 nM; in the assay on KM20L2 colon, 79300 nM; in the assay with M19-MEL melanoma, > 100000 nM; in the assay with LXFL 529 NSCLC it was > 100000 nM; in the assay with DMS 273 small cell lung it was > 100000 nM.

Take `CN[C@@H]1C[C@H]2O[C@@](C)([C@@H]1OC)n1c3ccccc3c3c4c(c5c6ccccc6n2c5c31)C(=O)N[C@@H]4O`: the TGI in the assay with SNB-78 CNS was found to be 225 nM; in the assay with HOP-18 NSCLC, 268 nM; in the assay on KM20L2 colon, 2530 nM; with M19-MEL melanoma, 4990 nM; in the assay with LXFL 529 NSCLC, 549 nM; in the assay on DMS 273 small cell lung, 637 nM. For the same molecule, the TGI with MDA-MB-435 was 300 nM and 1880 nM. Further, the GI50 in the assay on MDA-MB-435 was 47.8 nM.

Regarding `C=C1C(=O)OC2/C=C(\C=O)CC/C=C(\C)C(O)C[C@@H]12` (stereo not given in full), the TGI in the assay on SNB-78 CNS amounted to 18800 nM; with HOP-18 NSCLC, 31200 nM; in the assay with KM20L2 colon it was 22400 nM; in the assay on M19-MEL melanoma, 19200 nM; in the assay with LXFL 529 NSCLC, 13600 nM; in the assay on DMS 273 small cell lung, 15700 nM.

Values taken from PubChem BioAssay (NCI).
